The values below are quoted from earlier work in patent US11345706B2, “Crystalline forms of Acalabrutinib” (Apotex Inc., priority 2017, dated 2022).

SMILES strings stand for the structures.

Turning to `CC#CC(=O)N1CCC[C@H]1c1nc(-c2ccc(C(=O)Nc3ccccn3)cc2)c2c(N)nccn12` [Acalabrutinib, 4-{8-amino-3-[(2S)-1-(but-2-ynoyl)pyrrolidin-2-yl]imidazo[1,5-a]pyrazin-1-yl}-N-(pyridin-2-yl)benzamide], the “Biopharmaceutics Classification System (BCS) solubility classification” value is on record as “poorly soluble drug”. For the same compound, the pH-dependent solubility result (pH values of greater than 4, reported in U.S. Pat. No. 9,796,721 B2) is reported as “practically insoluble”.
